Entries after “also recorded” stand apart in the source; their conditions may differ. Read-outs that look alike come from different tables or passages of the source.
Assays:
[1] = molecular target: T1, hERG (Homo sapiens, UniProt Q12809); assay: Cardiac ion channels expressed in mammalian cells; assay type: cell-based; conditions: 0.1 μM, 1 μm, 10 μm, and 100 μm
T1 construct: expressed in transfected cells
Text: Voltage-gated K channels are activated by membrane depolarization. As with all voltage-gated ion channels, depolarization results in a conformational change in the S4 voltage sensor which contains positively charged amino acids. This conformational change triggers additional conformational changes leading to channel opening. Upon depolarization, these channels open, allowing the efflux of potassium from the cell, down its electrochemical gradient. They function in the heart and brain to repolarize the membrane potential and to terminate an action potential. A-type potassium currents are quickly inactivating potassium currents (eg, Kv4.2 and Kv1.4) and are important in the initial notch of repolarization in cardiac cells and the fast-spiking behavior of some neurons. Slowly inactivating channels provide more prolonged repolarization effects (eg, Kv1.5, Kv3.1, Kv2.1). hERG (human Ether-a-go-go Related Gene) channels are unusual voltage-gated potassium channels in that they are inwardly rectifying due to accelerated inactivation at positive voltages. hERG channels play a role in long-QT syndrome and block of hERG can precipitate torsades de pointe which may lead to fatal ventricular fibrillation. Screening of drugs for effects on hERG is desirable in investigational compounds. […]

[2] = molecular target: T2, muscarinic receptor M3 (Homo sapiens, UniProt P20309); assay: In vitro functional antagonism; assay type: biochemical
[3] = system: MPR1-MDCK; assay: MPR1-MDCK permeability, potential to cross the blood-brain barrier; assay type: in vitro ADME; conditions: from A-B Papp and efflux ratio
Text: (§1) A criterion for selecting an agent for proceeding to clinical trials is whether the compound crosses the blood-brain barrier. […] Fluphenazine (ICI-01175) is used as a control compound that has the potential to cross the blood-brain barrier. Table 1 summarizes the results of the test compounds for their potential to cross the blood-brain barrier.

[4] = as above; assay type: in vitro ADME; conditions: dog, MDCK
Text: as §1

[5] = molecular target: hCav1.2 (Homo sapiens, UniProt Q13936); assay: Cardiac ion channels expressed in mammalian cells; assay type: cell-based; conditions: 0.1 μM, 1 μm, 10 μm, and 100 μm
Text: Opening of voltage-gated calcium channels results in influx of calcium ions into the cell. This influx of calcium plays an important role in excitation-contraction coupling in cardiac and skeletal muscle fibers. The reversal potential for calcium is extremely positive, so calcium current is almost always inward, resulting in an action potential plateau in many excitable cells. These channels are the target of calcium channel blocker subtype of antihypertensive drugs. The alpha-1 subunit forms the ion conducting pore, with several modulating auxiliary subunits. Major subtypes of voltage-gated calcium channels include L-type (Cav1.1, Cav1.2, Cav1.3, Cav1.4), T-type (Cav3.1, Cav3.2, Cav3.3), N-type (Cav2.2), P-type (Cav2.1), and R-type (Cav2.3).
Mammalian cells were treated with ICI-735 (0.1 μM, 1 μm, 10 μm, and 100 μm) to determine whether ICI-735 blocked the expression of cardiac ion channels. It was observed that ICI-735 was able to block the expression of both hERG and hCav1.2). Without wishing to be bound by any particular theory, it is believed that the blocks in hERG and calcium channels may cancel one another physiologically, but sodium channel effect may lead to changes in membrane potential.

[6] = molecular target: T2, muscarinic receptor M3; assay: Receptor binding
[7] = molecular target: 5-HT2A receptor (Homo sapiens, UniProt P28223); assay: Serotonin-receptor binding assay; conditions: 10 μM and 0.1 μM
Text: (§2) The methods employed in this study have been adapted from the scientific literature to maximize reliability and reproducibility. The experiments include contacting a serotonin type 1A, 1B, 1D, 2A, 2B, 2C, 3, 4, 5A, 6, and 7 receptor with a test compound and comparing the level of binding of serotonin or a control compound (e.g., fluphenazine) with that serotonin type 1A, 1B, 1D, 2A, 2B, 2C, 3, 4, 5A, 6, and 7 receptor with the level of serotonin binding or control compound binding with an otherwise identical serotonin type 1A, 1B, 1D, 2A, 2B, 2C, 3, 4, 5A, 6, and 7 receptor not contacted with the test compound. […] The skilled artisan would also appreciate, in view of the disclosure provided herein, that standard binding assays known in the art, or those to be developed in the future, can be used to assess the binding of serotonin or a control compound with a serotonin type 1A, 1B, 1D, 2A, 2B, 2C, 3, 4, 5A, 6, and 7 receptor in the presence or absence of the test compound to identify a useful compound.
(§3) ICI-735 and fluphenazine were tested for selective binding to 1A, 1B, 1D, 2A, 2B, 2C, 3, 4, 5A, 6, and 7 receptors at concentrations of 10 μM and 0.1 μM.

[8] = molecular target: 5-HT1B receptor (Homo sapiens, UniProt P28222); assay: Serotonin-receptor binding assay; conditions: 10 μM and 0.1 μM
Text: as §2, §3

[9] = molecular target: 5-HT7 receptor (Homo sapiens, UniProt P34969); assay: Serotonin-receptor binding assay; conditions: 10 μM and 0.1 μM
Text: as §2, §3

[10] = molecular target: Nav1.5 (Homo sapiens, UniProt Q14524); assay: Effects on action potential in a mammalian cell, sodium channel block; assay type: cell-based
Text: Voltage-gated sodium channels are responsible for the initial phase of the action potential, which is a wave of electrical depolarisation usually initiated at the soma of the neuron and propagated along the nerve axon to the terminals. At the terminals, the action potential triggers the influx of calcium and the release of neurotransmitter. The voltage-gated sodium channel family is made up of four brain specific subtypes, Nav1.1, 1.2, 1.3 and 1.6; as well as Nav1.4, which is found on skeletal muscle; Nav1.5, which is found on cardiac muscle; and Nav1.7, 1.8, 1.9, are found predominantly on sensory neurons.
The effects of ICI-735 on action potential in a mammalian cell was tested. Briefly, it was observed that ICI-735 was able to block Nav1.5.

[11] = system: panel of leukotriene and prostanoid receptors; assay: Receptor binding panel
[12] = system: AdrR2 receptor; assay: Receptor binding

T2 sequence (P20309 whole entry): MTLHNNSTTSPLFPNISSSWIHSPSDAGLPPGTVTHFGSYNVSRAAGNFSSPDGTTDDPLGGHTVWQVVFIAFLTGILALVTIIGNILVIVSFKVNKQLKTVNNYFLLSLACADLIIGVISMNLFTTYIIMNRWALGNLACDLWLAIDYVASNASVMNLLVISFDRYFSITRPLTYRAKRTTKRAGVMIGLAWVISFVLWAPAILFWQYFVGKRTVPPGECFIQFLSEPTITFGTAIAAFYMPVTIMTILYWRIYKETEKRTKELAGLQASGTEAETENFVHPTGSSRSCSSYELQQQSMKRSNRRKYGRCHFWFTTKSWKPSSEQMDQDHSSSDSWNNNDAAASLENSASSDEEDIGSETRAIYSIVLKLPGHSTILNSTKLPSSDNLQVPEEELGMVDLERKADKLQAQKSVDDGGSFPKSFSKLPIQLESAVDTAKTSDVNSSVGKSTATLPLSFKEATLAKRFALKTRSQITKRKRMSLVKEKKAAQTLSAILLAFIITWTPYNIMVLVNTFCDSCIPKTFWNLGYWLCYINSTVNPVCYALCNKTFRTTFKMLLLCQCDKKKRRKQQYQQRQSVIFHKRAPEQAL
5-HT1B receptor, sequence (P28222 whole entry): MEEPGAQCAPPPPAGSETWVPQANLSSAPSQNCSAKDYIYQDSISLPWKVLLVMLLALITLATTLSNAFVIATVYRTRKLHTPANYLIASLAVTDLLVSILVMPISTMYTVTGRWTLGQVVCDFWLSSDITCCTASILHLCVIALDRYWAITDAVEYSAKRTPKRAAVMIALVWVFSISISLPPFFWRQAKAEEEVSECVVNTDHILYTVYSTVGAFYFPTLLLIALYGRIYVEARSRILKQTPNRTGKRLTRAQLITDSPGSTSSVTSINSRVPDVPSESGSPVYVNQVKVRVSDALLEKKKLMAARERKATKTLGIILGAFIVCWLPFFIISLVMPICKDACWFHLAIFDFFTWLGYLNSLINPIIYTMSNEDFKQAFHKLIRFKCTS
Nav1.5, sequence (Q14524 whole entry): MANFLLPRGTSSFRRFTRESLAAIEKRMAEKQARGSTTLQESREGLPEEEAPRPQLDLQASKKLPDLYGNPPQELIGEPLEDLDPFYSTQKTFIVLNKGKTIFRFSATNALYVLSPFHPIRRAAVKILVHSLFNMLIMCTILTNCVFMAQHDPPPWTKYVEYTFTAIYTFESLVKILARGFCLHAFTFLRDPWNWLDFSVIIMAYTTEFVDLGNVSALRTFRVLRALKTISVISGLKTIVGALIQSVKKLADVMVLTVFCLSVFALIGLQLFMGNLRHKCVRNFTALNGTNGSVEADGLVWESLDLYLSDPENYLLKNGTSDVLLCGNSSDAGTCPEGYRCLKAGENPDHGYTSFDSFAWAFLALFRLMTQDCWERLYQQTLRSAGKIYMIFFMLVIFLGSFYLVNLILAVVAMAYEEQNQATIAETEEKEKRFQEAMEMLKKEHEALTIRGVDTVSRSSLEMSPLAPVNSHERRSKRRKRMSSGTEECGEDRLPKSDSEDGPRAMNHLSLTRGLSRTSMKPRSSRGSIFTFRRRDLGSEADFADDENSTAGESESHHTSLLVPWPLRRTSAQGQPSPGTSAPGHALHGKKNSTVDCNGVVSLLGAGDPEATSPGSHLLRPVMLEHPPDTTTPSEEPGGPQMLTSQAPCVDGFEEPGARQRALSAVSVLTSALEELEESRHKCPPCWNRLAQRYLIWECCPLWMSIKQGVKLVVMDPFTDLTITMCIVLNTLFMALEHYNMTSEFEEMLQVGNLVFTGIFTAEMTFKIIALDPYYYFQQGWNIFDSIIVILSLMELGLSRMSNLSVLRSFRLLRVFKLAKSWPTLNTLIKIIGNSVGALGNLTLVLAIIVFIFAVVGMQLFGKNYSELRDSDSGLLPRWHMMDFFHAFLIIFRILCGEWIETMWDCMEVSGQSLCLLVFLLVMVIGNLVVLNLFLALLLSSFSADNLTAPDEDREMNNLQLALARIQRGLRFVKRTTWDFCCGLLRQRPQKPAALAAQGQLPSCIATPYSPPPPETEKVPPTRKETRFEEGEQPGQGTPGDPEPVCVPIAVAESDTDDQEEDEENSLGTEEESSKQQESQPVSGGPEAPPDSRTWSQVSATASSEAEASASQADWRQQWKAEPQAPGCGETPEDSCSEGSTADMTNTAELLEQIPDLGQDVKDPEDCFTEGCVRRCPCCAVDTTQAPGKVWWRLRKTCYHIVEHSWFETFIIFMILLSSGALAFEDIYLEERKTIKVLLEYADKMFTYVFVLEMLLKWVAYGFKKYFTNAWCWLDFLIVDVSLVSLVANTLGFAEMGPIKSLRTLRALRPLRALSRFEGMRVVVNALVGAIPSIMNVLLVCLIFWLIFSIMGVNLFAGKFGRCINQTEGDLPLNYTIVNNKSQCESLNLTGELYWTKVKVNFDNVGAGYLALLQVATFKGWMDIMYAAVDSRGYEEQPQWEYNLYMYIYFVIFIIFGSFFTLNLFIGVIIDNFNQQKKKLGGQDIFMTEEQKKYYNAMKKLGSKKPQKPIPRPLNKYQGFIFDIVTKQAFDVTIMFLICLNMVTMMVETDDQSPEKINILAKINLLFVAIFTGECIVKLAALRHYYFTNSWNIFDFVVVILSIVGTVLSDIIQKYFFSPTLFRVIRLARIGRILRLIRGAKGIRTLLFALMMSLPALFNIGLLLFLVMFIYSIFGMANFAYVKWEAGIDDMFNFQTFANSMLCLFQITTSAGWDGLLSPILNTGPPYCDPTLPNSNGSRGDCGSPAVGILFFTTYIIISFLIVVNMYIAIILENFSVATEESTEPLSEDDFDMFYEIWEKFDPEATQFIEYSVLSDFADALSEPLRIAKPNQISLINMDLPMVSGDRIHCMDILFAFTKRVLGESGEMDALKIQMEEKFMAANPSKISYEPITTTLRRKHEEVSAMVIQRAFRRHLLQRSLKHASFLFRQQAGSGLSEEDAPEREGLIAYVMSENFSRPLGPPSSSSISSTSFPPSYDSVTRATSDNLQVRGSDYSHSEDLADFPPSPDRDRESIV
5-HT7 receptor, sequence (P34969 whole entry): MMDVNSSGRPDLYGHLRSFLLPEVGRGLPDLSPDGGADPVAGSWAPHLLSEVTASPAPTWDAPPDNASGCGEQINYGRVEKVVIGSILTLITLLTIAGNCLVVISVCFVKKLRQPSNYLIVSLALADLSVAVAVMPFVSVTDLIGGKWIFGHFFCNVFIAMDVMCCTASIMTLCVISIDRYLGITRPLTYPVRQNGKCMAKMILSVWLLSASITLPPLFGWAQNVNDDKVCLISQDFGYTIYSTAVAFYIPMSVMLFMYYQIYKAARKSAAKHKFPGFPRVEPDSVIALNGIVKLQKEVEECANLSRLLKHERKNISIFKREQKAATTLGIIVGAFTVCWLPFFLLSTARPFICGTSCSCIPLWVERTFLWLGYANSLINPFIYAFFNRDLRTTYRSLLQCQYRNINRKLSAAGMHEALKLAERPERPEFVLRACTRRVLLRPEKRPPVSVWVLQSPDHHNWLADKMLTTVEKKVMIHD
5-HT2A receptor, sequence (P28223 whole entry): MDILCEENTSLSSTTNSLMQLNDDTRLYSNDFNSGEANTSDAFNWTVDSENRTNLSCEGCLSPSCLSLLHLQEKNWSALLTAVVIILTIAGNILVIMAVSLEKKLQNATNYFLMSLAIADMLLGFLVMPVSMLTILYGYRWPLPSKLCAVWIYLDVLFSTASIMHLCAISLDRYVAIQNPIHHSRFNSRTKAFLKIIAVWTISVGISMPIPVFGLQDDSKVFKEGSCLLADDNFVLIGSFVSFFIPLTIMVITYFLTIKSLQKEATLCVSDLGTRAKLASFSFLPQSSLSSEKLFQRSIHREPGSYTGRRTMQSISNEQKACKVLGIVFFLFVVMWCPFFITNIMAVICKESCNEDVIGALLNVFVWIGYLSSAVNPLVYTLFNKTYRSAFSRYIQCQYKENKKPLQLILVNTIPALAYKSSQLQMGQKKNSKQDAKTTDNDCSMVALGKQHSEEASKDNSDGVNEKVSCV
T1 sequence (Q12809 whole entry): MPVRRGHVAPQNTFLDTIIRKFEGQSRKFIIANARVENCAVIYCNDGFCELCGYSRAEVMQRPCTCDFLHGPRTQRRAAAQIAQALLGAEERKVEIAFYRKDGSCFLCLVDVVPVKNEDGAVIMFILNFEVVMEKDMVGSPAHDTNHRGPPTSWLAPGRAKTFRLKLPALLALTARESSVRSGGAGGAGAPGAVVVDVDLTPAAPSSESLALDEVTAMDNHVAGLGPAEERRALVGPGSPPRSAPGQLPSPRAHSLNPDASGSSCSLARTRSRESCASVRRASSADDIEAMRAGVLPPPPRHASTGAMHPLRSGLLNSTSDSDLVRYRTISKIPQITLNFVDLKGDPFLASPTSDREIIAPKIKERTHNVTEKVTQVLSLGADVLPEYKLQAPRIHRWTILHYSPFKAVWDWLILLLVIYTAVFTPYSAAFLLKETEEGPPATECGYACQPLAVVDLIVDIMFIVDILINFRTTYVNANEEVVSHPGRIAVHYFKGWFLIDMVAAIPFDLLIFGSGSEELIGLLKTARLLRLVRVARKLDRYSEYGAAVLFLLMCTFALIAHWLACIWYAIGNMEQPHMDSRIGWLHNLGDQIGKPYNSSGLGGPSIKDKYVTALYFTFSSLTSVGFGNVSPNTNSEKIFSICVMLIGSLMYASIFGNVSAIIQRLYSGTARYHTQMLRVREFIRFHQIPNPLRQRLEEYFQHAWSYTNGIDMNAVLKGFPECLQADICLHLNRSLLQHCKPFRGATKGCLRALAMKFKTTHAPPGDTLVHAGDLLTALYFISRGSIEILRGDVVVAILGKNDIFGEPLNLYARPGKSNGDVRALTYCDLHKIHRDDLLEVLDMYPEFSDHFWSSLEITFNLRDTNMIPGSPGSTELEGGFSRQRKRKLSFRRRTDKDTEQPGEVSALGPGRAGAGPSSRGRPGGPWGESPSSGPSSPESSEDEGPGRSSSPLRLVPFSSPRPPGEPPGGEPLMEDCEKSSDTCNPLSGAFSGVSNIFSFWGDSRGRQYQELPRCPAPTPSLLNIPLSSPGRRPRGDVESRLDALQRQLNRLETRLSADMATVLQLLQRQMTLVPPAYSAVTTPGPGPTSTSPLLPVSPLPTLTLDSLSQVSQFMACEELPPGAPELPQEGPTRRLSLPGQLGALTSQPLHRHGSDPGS

SMILES: NCC(=O)NCCN1CCN(CCCN2c3ccccc3Sc3ccc(C(F)(F)F)cc32)CC1 [ICI-735]
- block of hERG [1]: able to block
- in vitro functional antagonism for muscarinic receptor M3 [2]: weak in vitro functional antagonism; also recorded: weak or undetectable
- Brain Penetration Classification [3]: Low (A-B Papp > 3.0 and Efflux Ratio > 10: Low)
- Papp A→B ([4]; A-B direction): 0.23 ×10⁻⁶ cm/s
- recovery ([4]; A-B direction, read-out: % Recovery A-B): 47%
- Papp B→A ([4]; B-A direction): 28.6 ×10⁻⁶ cm/s
- recovery ([4]; B-A direction, read-out: % Recovery B-A): 33%
- efflux ratio ([4]; efflux ratio): 124
- block of hCav1.2 [5]: able to block
- binding to muscarinic receptor M3 [6]: weak binding; also recorded: weak or undetectable
- binding to 5-HT2A receptor as compared to fluphenazine [7]: decrease activity; also recorded: decreased binding
- binding to 5-HT1B receptor as compared to fluphenazine [8]: significant increase activity; also recorded: increased binding
- binding to 5-HT7 receptor as compared to fluphenazine [9]: significant increase activity; also recorded: increased binding
- IC50 [10]: 8.33 µM
- block of Nav1.5 [10]: able to block
- binding to a panel of leukotriene and prostanoid receptors [11]: does not bind
- binding to AdrR2 receptor [12]: does not bind; also recorded: weak or undetectable

From patent publication US20100130457A1, “Phenothiazine Derivatives for Treatment of Asthma” (Immune Control, Inc., priority 2008, published 2010)
